Data on two molecules can be found in patent US20250049962A1, “NEAR-INFRARED FLUORESCENT CONTRAST BIOIMAGING AGENTS FOR IMAGING OF SENTINEL LYMPH NODES” (Curadel Surgical Innovations, Inc., priority 2021, published 2025).

“Also recorded” adds a separate entry of the source.

Series [1] can be described thus: Lymph flow imaging after intradermal peri-tail injection. In kind it is in vivo, CD-1 mice. Particulars: until 15 minutes post injection, ICG at 800 nm, FIG. 4. The procedure:
The same procedure was used using intradermal peri-tail injections to visual lymph flow until 15 minutes post injection at which point the animal was sacrificed. […] The arrow with the circle indicates the first-tier node.

A short description of series [2]: Biodistribution and clearance 4 hours after intravenous injection. In kind it is in vivo, CD-1 mice. As to conditions: 4 hours post iv injection. On the procedure:
(§1) All foot pad injections and intravenous injections were 10 μL of each of these 500 μM concentrations for a total of 5 nmol per injection.
In order to show the biodistribution benefits of ICB, the same procedure was used using intravenous injections. After 4 hours animals were sacrificed, and the target tissue and other major organs including heart, lung, liver, spleen, pancreas, kidneys, duodenum, intestine, and muscle were resected to quantify biodistribution and clearance. A biodistribution analysis of all three dyes at 4 hours post iv injection.

A short description of another series: Solubility measurement. In kind it is physicochemical. The procedure:
However, the contrast agent is soluble in mixtures of water and ethanol. […] After mixing for an extended period, the solutions were filtered using a 0.45 um spin filter. The solvent of known volumes was then removed by evaporation and solubility was determined by measuring the remaining solids in the pre-measured evaporating flask.

Series [3] can be described thus: SLN imaging after footpad injection, NIR fluorescence imaging. In kind it is in vivo, CD-1 mice.
Source text: Neae Infrared fluorescence imaging can be achieved using a number of commercially available imaging systes. For example, the dual-NIR channel FLARE imaging system has been described in detail. It provides simultaneous illumination with white light (400-650 nm) at 40,000 lx, 660 nm NIR Channel 1 excitation at 4 mW/cm^2 and […] NIR Channel 2 excitation at 10 mW/cm^2. Color and two independent NIR fluorescence emission images (≈700 nm for Channel 1 and ≈800 nm for Channel 2) were acquired simultaneously with custom software at rates up to 15 Hz over a 15 cm diameter field of view. NIR fluorescence from Channel 1 was pseudo-colored in red and NIR fluorescence from Channel 2 was pseudo-colored in lime green prior to merger with the color video image. The imaging system was positioned at a distance of 18 inches from the surgical field.
as §1
Sentinel lymph nodes were observed a near infrared (NIR) imaging system.
The target tissue was exposed and the SLN was imaged for NIR fluorescence using dual channels [Channel 1 (700 nm) and Channel 2 (800 nm)] of a NIR imaging system.

On to `CC1(C)C(/C=C/C=C/C=C/C=C2\N(CCCCS(=O)(=O)O)c3ccc4ccccc4c3C2(C)C)=[N+](CCCCS(=O)(=O)[O-])c2ccc3ccccc3c21` [ICG, indocyanine green, reference compound], for which the LN skipping result in series [1] is recorded as “significant LN skipping”. For the same molecule, in series [2] (5 nmol), the “signal in the large intestine” value was “enhanced signal” and the “signal in the stomach” value is given as “to lesser extent”.

As to “4-[(2Z)-2-[(2E,4E)-5-[3,3-dimethyl-1-(4-sulfobutyl) indol-1-ium-2-yl]penta-2,4-dienylidene]-3,3-dimethylindol-1-yl]butane-1-sulfonic acid [ICB]”, the solubility result in the series “Solubility measurement” (D5W) is given as “at least 10 mg/mL”. Also, in “Solubility measurement” (water), the solubility result is “at least 10 mg/mL”. In series [3] (5 nmol footpad injection, CD-1 mice), the “leakage / flow through from sentinel lymph nodes” value is “considerably less leakage over ICG or SLN700; also recorded: little to no significant flow through”. In addition, the first-tier/second-tier signal-to-background ratio in series [3] (15 minutes post-injection, 5 nmol footpad injection, CD-1 mice) came out at 5.4±1.6. Also, the brightness of visualization entry in series [3] (compared to SLN700, 700 nm) is “brighter”. For the same molecule, the “liver (hepatic) clearance observed by the imaging” value in series [3] (footpad injection, CD-1 mice) was “Visible liver (hepatic) clearance”. In addition, in series [2], the route of clearance entry is “completely cleared by the liver”. In series [2] (5 nmol), the “signal in the kidneys” value is on record as “Minimal signal”, the “signal in the large intestine” value is reported as “enhanced signal” and the “signal in the stomach” value is “to lesser extent”.
